Reference: US20260240844A1, “INHIBITORS OF CHD1L AND USES THEREOF” (The Regents of the University of Colorado, a body corporate, priority 2023, published 2026)
Where two headings read alike, the source gives them in different places.

Key:
cat-CHD1L = target: T1, cat-CHD1L (Homo sapiens, UniProt Q86WJ1); assay: CHD1L ATPase assay measured by ADP-Glo; format: biochemical
T1 construct: made in house; host or cells: Rosetta 2 (DE3) pLysS cells (E. coli)
T1 sequence (Q86WJ1 16-619): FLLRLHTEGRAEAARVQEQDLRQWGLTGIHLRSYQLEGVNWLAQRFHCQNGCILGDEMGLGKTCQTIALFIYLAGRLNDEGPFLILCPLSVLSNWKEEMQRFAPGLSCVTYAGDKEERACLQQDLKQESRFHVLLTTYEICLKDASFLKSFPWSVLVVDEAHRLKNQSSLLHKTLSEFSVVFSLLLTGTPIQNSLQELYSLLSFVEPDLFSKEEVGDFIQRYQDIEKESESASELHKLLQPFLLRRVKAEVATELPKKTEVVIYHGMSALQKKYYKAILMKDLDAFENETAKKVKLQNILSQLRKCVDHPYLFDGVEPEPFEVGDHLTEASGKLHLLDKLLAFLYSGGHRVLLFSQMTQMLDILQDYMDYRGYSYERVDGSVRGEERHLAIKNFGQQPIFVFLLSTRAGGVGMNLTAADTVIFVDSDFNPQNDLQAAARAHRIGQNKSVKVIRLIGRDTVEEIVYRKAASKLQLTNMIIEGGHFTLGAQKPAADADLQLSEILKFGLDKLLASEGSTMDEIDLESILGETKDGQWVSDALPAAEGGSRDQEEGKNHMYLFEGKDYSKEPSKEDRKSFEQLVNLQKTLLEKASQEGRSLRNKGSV
Procedure: No enzyme control was used to measure the background. […] The reaction was incubated at 37° C. for 1 h. The assay plate was brought to RT before 5 μL of ADP-glo™ Reagent (Promega, Cat. No. V9102) was added to remove unreacted ATP. The ATP depletion step was carried out at RT for 40 min before 10 μL of Kinase Detection Reagent was added and incubated for 30-60 min to convert the ADP produced from the enzyme assay back to ATP for luciferase rection to convert to light for detection. An EnVision plate reader (PerkinElmer) was used to detect luminescence from the ADP-glo assay and the enzyme activity was determined after background subtraction and normalization to enzyme only control.

PARP2 = PARP2 (Homo sapiens, UniProt Q9UGN5); assay: PARP2 enzymatic (colorimetric) assay; format: biochemical
Procedure: . First, a 96 well plate was coated with histones. Next, the biotinylated NAD^+ substrate was incubated with an activated DNA template, the inhibitor to test and the PARP1/2 enzyme for 1 h at RT. After that, the sample plate was treated with streptavidin-RP for 30 min at RT, followed by addition of the horseradish peroxidase (HRP) substrate until the colorimetric signal was developed. The EnVision plate reader (PerkinElmer) was used to measure the absorbance at 450 nm and the results were plotted and analyzed using GraphPad Prism.

SUM149PT tumor organoids = assay: Tumor organoid cytotoxicity (CellTiter Glo 3D), SUM149PT; format: cell-based; settings: for IC50: Homo sapiens
Procedure: Tumor organoid culture—Cell lines were cultured as tumor organoids by seeding 2,000 to 5,000 cells/well into uncoated 96 well U-bottom Ultra Low Attachment Microplates (Corning) using their corresponding medium.
Luminescence was recorded using the EnVision plate reader (PerkinElmer) and values normalized to the controls using GraphPad Prism.

HCC1937 tumor organoids = assay: Tumor organoid cytotoxicity, HCC1937; format: cell-based; settings: Homo sapiens; HCC1937 (BRCA1 mutant HR-deficient); read-out: IC50, tumor organoid viability, single agent
Procedure: (§1) Tumor organoid culture—Cell lines were cultured as tumor organoids by seeding 2,000 to 5,000 cells/well into uncoated 96 well U-bottom Ultra Low Attachment Microplates (Corning) using their corresponding medium. Cell aggregation was then promoted by centrifugation of the plates for 15 min at 1,000 rpm followed by the addition of Matrigel (Corning) to a 2-5% final concentration. Tumor organoids were maintained under standard cell culture conditions for 72 h prior to drug treatment.
(§2) Organoids were then transferred to a white solid bottom 96 well plate and incubated with an equal volume of CellTiter Glo 3D reagent (Promega) for 45 min on a shaker at 400 rpm. Luminescence was recorded using the EnVision plate reader (PerkinElmer) and values normalized to the controls using GraphPad Prism.

[1] = system: MDA-MB-231 tumor organoids; assay: Tumor organoid cytotoxicity, MDA-MB-231; format: cell-based; settings: Homo sapiens
Procedure: as §1, §2

SUM149PT cells = assay: Phosphatidylserine externalization, membrane integrity and DNA fragmentation; format: cell-based
Procedure: Phosphatidylserine externalization and membrane integrity—phosphatidylserine externalization and membrane integrity kinetics were analyzed using the RealTime-Glo™ Annexin V Apoptosis and Necrosis Assay (Promega, JA1012) according to the manufacturer's instructions. 8,000 cells were seeded per well in 96 well solid bottom white plates (Corning) in 100 μL and allowed to attach overnight. Then, 75 μL of media were removed, followed by the addition of 25 μL of the test compounds at 4× desired final concentration and 50 μL of the 2× detection reagent. Luminescence and fluorescence were measured overtime using an EnVision plate reader (PerkinElmer). No-cell and medium-only controls were used for background correction.
PARthanatos might be accompanied by other events also occurring during apoptosis or necrosis like mitochondrial depolarization, phosphatidylserine (PS) externalization, loss of membrane integrity and large-scale DNA fragmentation. To better characterize this mechanism, PS externalization and membrane integrity were studied using a real-time multiplex assay that monitors Annexin V binding to PS and simultaneous loss of cell membrane integrity with a membrane impermeable DNA binding dye. […] In contrast, CHD1Li caused a rapid and simultaneous increase of both when combined with SOC drugs, shifting the kinetics to a more non-apoptotic phenotype.

Sequence of PARP2 (Q9UGN5 whole entry): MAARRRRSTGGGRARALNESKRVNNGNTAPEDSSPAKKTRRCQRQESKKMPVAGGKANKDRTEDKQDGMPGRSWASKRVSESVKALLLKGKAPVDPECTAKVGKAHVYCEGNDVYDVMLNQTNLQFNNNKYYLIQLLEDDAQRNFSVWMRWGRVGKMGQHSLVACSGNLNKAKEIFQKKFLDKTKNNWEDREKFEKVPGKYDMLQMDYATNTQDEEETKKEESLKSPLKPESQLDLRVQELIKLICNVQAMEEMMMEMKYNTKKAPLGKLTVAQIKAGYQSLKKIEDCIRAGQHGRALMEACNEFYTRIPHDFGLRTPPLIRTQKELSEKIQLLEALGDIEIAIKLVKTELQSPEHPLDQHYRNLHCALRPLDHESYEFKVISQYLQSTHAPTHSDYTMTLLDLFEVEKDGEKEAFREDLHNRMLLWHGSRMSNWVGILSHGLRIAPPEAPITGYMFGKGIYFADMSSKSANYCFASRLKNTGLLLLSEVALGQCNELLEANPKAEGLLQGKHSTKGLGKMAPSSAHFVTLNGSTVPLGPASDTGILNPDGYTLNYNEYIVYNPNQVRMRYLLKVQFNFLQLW

SMILES	inhibition of CHD1L ATPase activity (cat-CHD1L)	PARP2 enzyme activity (PARP2)	IC50 (SUM149PT tumor organoids; SUM149PT, SUM149PT (BRCA1 mutant HR-deficient), read-out: IC50, tumor organoid viability, single agent) [µM]	Bliss synergy score, cytotoxicity (SUM149PT tumor organoids; SUM149PT tumor organoids, Compound 6 combined with 5-FU)	IC50 (HCC1937 tumor organoids) [nM]	IC50 ([1]; MDA-MB-231, MDA-MB-231 (BRCA wildtype HR-proficient), read-out: IC50, tumor organoid viability, single agent) [nM]	DNA fragmentation (Hoechst 33342) (SUM149PT cells)	IC50 (SUM149PT tumor organoids; SUM149PT, Compound 13 0 μM, read-out: IC50 doxorubicin (μM) in SUM149PT) [µM]	IC50 (SUM149PT tumor organoids; SUM149PT, Compound 13 2 μM, read-out: IC50 doxorubicin (μM) in SUM149PT) [µM]	IC50 (SUM149PT tumor organoids; SUM149PT, Compound 13 2.25 μM, read-out: IC50 doxorubicin (μM) in SUM149PT) [µM]	IC50 (SUM149PT tumor organoids; SUM149PT, Compound 13 2.5 μM, read-out: IC50 doxorubicin (μM) in SUM149PT) [µM]	IC50 (SUM149PT tumor organoids; SUM149PT tumor organoids, 72 h, + non-lethal doses of Compound 6, read-out: IC50 of the drug in combination) [µM]	increase in potency of the chemotherapy (SUM149PT tumor organoids; SUM149PT BRCA1 mutant tumor organoids, + 1.9 μM Compound 6) [fold]	improvement of IC50 potency (SUM149PT tumor organoids; SUM149PT tumor organoids, combined with Compound 6) [fold]	IC50 ([1]; MDA-MB-231, Compound 13 0 μM, read-out: IC50 doxorubicin (nM) in MDA-MB-231) [nM]	IC50 ([1]; MDA-MB-231, Compound 13 2 μM, read-out: IC50 doxorubicin (nM) in MDA-MB-231) [nM]	IC50 ([1]; MDA-MB-231, Compound 13 2.25 μM, read-out: IC50 doxorubicin (nM) in MDA-MB-231) [nM]	IC50 ([1]; MDA-MB-231, Compound 13 2.5 μM, read-out: IC50 doxorubicin (nM) in MDA-MB-231) [nM]	phosphatidylserine externalization / membrane integrity kinetics (SUM149PT cells; real-time Annexin V assay)
Cc1cc(Nc2ccc(NC(=O)Cc3cccs3)cc2)nc(N2CCCC2)n1 [Compound 6, N-(4-((6-methyl-2-(pyrrolidin-1-yl)pyrimidin-4-yl)amino)phenyl)-2-(thiophen-2-yl)acetamide]	potently inhibited	does not have any effect on PARP1/2 activity	1.7	59	2800	3300	large-scale fragmentation of DNA												
COc1cccc2c1C(=O)c1c(O)c3c(c(O)c1C2=O)C[C@@](O)(C(=O)CO)C[C@@H]3O[C@H]1C[C@H](N)[C@H](O)[C@H](C)O1 [doxorubicin]	do not trap CHD1L or inhibit CHD1L ATPase activity							0.505	0.0944	0.016	0.279	0.28 ± 0.01	20	2	346	92.2	81.5	20.2	apoptotic kinetic phenotype
